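All cell lines were grown in 96-well plates and treated with compound for 48 hours. GI50 marks 50% less growth.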 Active and inactive are the calls of the source. Rule as the data show it: active = GI50 up to about 1.1 µM and inactive = higher.
Assays:
Assay in all cases: DTP human tumour cell line panel, 48 h
OVCAR-3 = tested on: OVCAR-3
T47D = tested on: T47D
SNB-19 = tested on: SNB-19
HL-60 = tested on: HL-60
RPMI-8226 = tested on: RPMI-8226
COLO 205 = tested on: COLO 205
BT-549 = tested on: BT-549
NCI-H522 = tested on: NCI-H522
MCF7 = tested on: MCF7
Hs-578T = tested on: Hs-578T
KM12 = tested on: KM12
PC-3 = tested on: PC-3
NCI/ADR-RES = tested on: NCI/ADR-RES
SK-MEL-5 = tested on: SK-MEL-5
SW-620 = tested on: SW-620
A549 = tested on: A549
SNB-75 = tested on: SNB-75
NCI-H226 = tested on: NCI-H226
786-0 = tested on: 786-0
A498 = tested on: A498
ACHN = tested on: ACHN
SF-295 = tested on: SF-295
M14 = tested on: M14
SN12C = tested on: SN12C
UO-31 = tested on: UO-31
NCI-H460 = tested on: NCI-H460
HCT-116 = tested on: HCT-116
OVCAR-5 = tested on: OVCAR-5
IGROV-1 = tested on: IGROV-1
CAKI-1 = tested on: CAKI-1
SF-268 = tested on: SF-268
SK-MEL-28 = tested on: SK-MEL-28
SF-539 = tested on: SF-539
SK-OV-3 = tested on: SK-OV-3
OVCAR-4 = tested on: OVCAR-4
HT-29 = tested on: HT-29
HOP-92 = tested on: HOP-92
SR = tested on: SR
HOP-62 = tested on: HOP-62
K562 = tested on: K562
EKVX = tested on: EKVX
DU-145 = tested on: DU-145
MDA-MB-435 = tested on: MDA-MB-435
MDA-MB-231 = tested on: MDA-MB-231
U-251 = tested on: U-251
MDA-N = tested on: MDA-N
LOX IMVI = tested on: LOX IMVI
SK-MEL-2 = tested on: SK-MEL-2
HCT-15 = tested on: HCT-15
OVCAR-8 = tested on: OVCAR-8
UACC-257 = tested on: UACC-257
UACC-62 = tested on: UACC-62
MOLT-4 = tested on: MOLT-4
TK-10 = tested on: TK-10
Malme-3M = tested on: Malme-3M
RXF 393 = tested on: RXF 393
NCI-H23 = tested on: NCI-H23
CCRF-CEM = tested on: CCRF-CEM
HCC 2998 = tested on: HCC 2998

Measured: GI50

O=C(O)CN1C(=O)CN=C(c2ccccn2)c2cc(Cl)ccc21
active: SR 0.547 µM
> 100 µM: HCT-15
inactive: OVCAR-3 > 100 µM | T47D > 100 µM | SNB-19 > 100 µM | HL-60 4.31 µM | RPMI-8226 > 100 µM | COLO 205 > 100 µM | BT-549 > 100 µM | NCI-H522 > 100 µM | MCF7 > 100 µM | Hs-578T > 100 µM | KM12 > 100 µM | PC-3 > 100 µM | NCI/ADR-RES > 100 µM | SK-MEL-5 > 100 µM | SW-620 > 100 µM | A549 > 100 µM | SNB-75 > 100 µM | NCI-H226 > 100 µM | 786-0 > 100 µM | A498 > 100 µM | ACHN > 100 µM | SF-295 > 100 µM | M14 > 100 µM | SN12C > 100 µM | UO-31 > 100 µM | NCI-H460 > 100 µM | HCT-116 > 100 µM | OVCAR-5 > 100 µM | IGROV-1 > 100 µM | CAKI-1 > 100 µM | SF-268 > 100 µM | SK-MEL-28 > 100 µM | SF-539 > 100 µM | SK-OV-3 > 100 µM | OVCAR-4 > 100 µM | HT-29 > 100 µM | HOP-92 > 100 µM | HOP-62 > 100 µM | K562 > 100 µM | EKVX > 100 µM | DU-145 > 100 µM | MDA-MB-435 > 100 µM | MDA-MB-231 > 100 µM | U-251 > 100 µM | MDA-N > 100 µM | LOX IMVI > 100 µM | SK-MEL-2 > 100 µM | OVCAR-8 > 100 µM | UACC-257 > 100 µM | UACC-62 > 100 µM | MOLT-4 1.24 µM | TK-10 > 100 µM | Malme-3M > 100 µM | RXF 393 > 100 µM

COC(=O)c1cc(C)n2c1CS[C@@H]2c1ccccc1
inactive: OVCAR-3 32.4 µM | T47D 21.5 µM | SNB-19 66.1 µM | HL-60 26.2 µM | RPMI-8226 28.2 µM | COLO 205 26.9 µM | BT-549 29.2 µM | NCI-H522 23.2 µM | NCI-H23 34.5 µM | MCF7 34 µM | Hs-578T 45.1 µM | KM12 35.1 µM | PC-3 40.5 µM | NCI/ADR-RES 25.1 µM | SK-MEL-5 19.8 µM | SW-620 44.6 µM | A549 34.7 µM | SNB-75 16.5 µM | NCI-H226 28.8 µM | 786-0 50.6 µM | A498 27.4 µM | ACHN 58.7 µM | SF-295 30.7 µM | M14 24.9 µM | SN12C 37.2 µM | UO-31 28.4 µM | HCT-116 33.7 µM | OVCAR-5 > 100 µM | IGROV-1 44.4 µM | CAKI-1 38.7 µM | SF-268 50.6 µM | SK-MEL-28 > 100 µM | CCRF-CEM 41.4 µM | SK-OV-3 46 µM | OVCAR-4 36.8 µM | HT-29 31.2 µM | HOP-92 22.4 µM | SR 17.3 µM | HOP-62 37.8 µM | K562 14.1 µM | EKVX 32.2 µM | DU-145 82 µM | MDA-MB-435 19.1 µM | MDA-MB-231 57.4 µM | U-251 32 µM | MDA-N 21.1 µM | LOX IMVI 40.1 µM | SK-MEL-2 28.4 µM | OVCAR-8 44.4 µM | UACC-257 47.9 µM | MOLT-4 22.5 µM | TK-10 66.4 µM | Malme-3M 27.6 µM | RXF 393 18.6 µM
27.5 µM: HCT-15

Cc1oc2c(cc(O)c3cc(O)ccc32)c2cccc1-2
active: BT-549 0.697 µM
> 100 µM: HCT-15
inactive: OVCAR-3 > 100 µM | T47D 42.1 µM | SNB-19 > 100 µM | HL-60 > 100 µM | RPMI-8226 > 100 µM | COLO 205 > 100 µM | NCI-H522 35.2 µM | NCI-H23 > 100 µM | MCF7 33.4 µM | Hs-578T > 100 µM | KM12 > 100 µM | PC-3 > 100 µM | NCI/ADR-RES > 100 µM | SK-MEL-5 > 100 µM | SW-620 > 100 µM | A549 > 100 µM | SNB-75 > 100 µM | 786-0 > 100 µM | A498 > 100 µM | ACHN > 100 µM | SF-295 > 100 µM | M14 > 100 µM | SN12C > 100 µM | UO-31 > 100 µM | NCI-H460 > 100 µM | HCT-116 > 100 µM | OVCAR-5 > 100 µM | IGROV-1 > 100 µM | CAKI-1 > 100 µM | SF-268 > 100 µM | SK-MEL-28 > 100 µM | SF-539 > 100 µM | CCRF-CEM 43.5 µM | SK-OV-3 > 100 µM | HT-29 > 100 µM | HOP-92 > 100 µM | SR 37 µM | HOP-62 > 100 µM | K562 > 100 µM | EKVX > 100 µM | DU-145 > 100 µM | MDA-MB-435 > 100 µM | MDA-MB-231 > 100 µM | U-251 > 100 µM | MDA-N > 100 µM | LOX IMVI > 100 µM | SK-MEL-2 > 100 µM | OVCAR-8 > 100 µM | HCC 2998 > 100 µM | UACC-257 > 100 µM | UACC-62 > 100 µM | MOLT-4 > 100 µM | TK-10 > 100 µM | Malme-3M > 100 µM | RXF 393 > 100 µM

O=C1CC(Nc2ccccc2)c2c(Cl)sc(Cl)c21 (configuration not stated)
active: HL-60 0.199 µM | RPMI-8226 < 0.01 µM | COLO 205 0.906 µM | NCI-H522 0.139 µM | KM12 0.483 µM | SW-620 0.369 µM | 786-0 0.234 µM | UO-31 1.11 µM | CAKI-1 0.65 µM | SF-268 0.778 µM | SF-539 0.527 µM | CCRF-CEM 0.127 µM | SR 0.52 µM | K562 1.12 µM | LOX IMVI 0.39 µM | MOLT-4 0.484 µM
inactive: OVCAR-3 1.79 µM | T47D 1.48 µM | SNB-19 5.19 µM | BT-549 2.22 µM | NCI-H23 1.91 µM | MCF7 1.47 µM | Hs-578T 2.42 µM | PC-3 1.49 µM | NCI/ADR-RES 2.42 µM | SK-MEL-5 4.66 µM | A549 2.05 µM | SNB-75 2.31 µM | NCI-H226 8.65 µM | A498 2.5 µM | ACHN 1.18 µM | SF-295 5.11 µM | M14 1.66 µM | SN12C 1.51 µM | NCI-H460 6.37 µM | HCT-116 1.19 µM | OVCAR-5 2.34 µM | IGROV-1 1.61 µM | SK-MEL-28 1.86 µM | SK-OV-3 13.4 µM | OVCAR-4 2.01 µM | HT-29 1.7 µM | HOP-92 1.41 µM | HOP-62 2.57 µM | EKVX 1.76 µM | DU-145 1.6 µM | MDA-MB-435 1.52 µM | MDA-MB-231 1.92 µM | U-251 1.68 µM | MDA-N 1.65 µM | SK-MEL-2 1.89 µM | OVCAR-8 1.4 µM | HCC 2998 1.76 µM | UACC-257 1.85 µM | UACC-62 1.32 µM | TK-10 1.81 µM | Malme-3M 1.42 µM
0.767 µM: HCT-15

CCCCCCCCCCCCCCCCOP(=O)(O)OP(=O)(O)OCC1OC(n2cnc3c(N)ncnc32)C(O)C1O (configuration not stated)
> 100 µM: HCT-15
inactive: OVCAR-3 > 100 µM | T47D > 100 µM | SNB-19 34 µM | HL-60 66.7 µM | COLO 205 > 100 µM | BT-549 18.7 µM | NCI-H522 19.9 µM | NCI-H23 87.1 µM | MCF7 56 µM | Hs-578T 43.8 µM | KM12 > 100 µM | PC-3 38.2 µM | NCI/ADR-RES 78.9 µM | SK-MEL-5 > 100 µM | SW-620 > 100 µM | A549 > 100 µM | SNB-75 24.4 µM | NCI-H226 54.6 µM | 786-0 80.5 µM | A498 > 100 µM | ACHN > 100 µM | M14 64.9 µM | SN12C 36.3 µM | UO-31 60.5 µM | NCI-H460 36.1 µM | HCT-116 45.5 µM | OVCAR-5 11.5 µM | IGROV-1 66.8 µM | CAKI-1 99.3 µM | SF-268 73.8 µM | SK-MEL-28 24.5 µM | CCRF-CEM 30.5 µM | SK-OV-3 33 µM | OVCAR-4 > 100 µM | HT-29 39.9 µM | HOP-92 19.1 µM | SR 31.8 µM | HOP-62 30.5 µM | K562 46.8 µM | EKVX > 100 µM | DU-145 69.3 µM | MDA-MB-435 56.5 µM | MDA-MB-231 > 100 µM | U-251 46 µM | MDA-N 75.9 µM | LOX IMVI > 100 µM | SK-MEL-2 49.8 µM | OVCAR-8 39.8 µM | HCC 2998 52.1 µM | UACC-257 > 100 µM | UACC-62 58.7 µM | MOLT-4 23.5 µM | TK-10 > 100 µM | Malme-3M 43.9 µM | RXF 393 98.4 µM

From ChEMBL document CHEMBL1201862, “PubChem BioAssay data set” (2004)
